From patent US8148532B2, “Spiro substituted compounds as angiogenesis inhibitors” (priority 2007, dated 2012)

What was measured:
Assay type in all cases: biochemical
[1] = target: T1, Flt4(h) (Homo sapiens, UniProt P35916); test: in vitro tyrosine kinase inhibition, Flt4(h)
T1 construct: purchased Millipore Upstate Ltd
Text: (§1) Several in vitro tyrosine kinase inhibition activities can be measured according to the description in Rewcastle, G W, J. Med. Chem. 1996, 39, 918-928 and Edwards M, International Biotechnology Lab 5 (3), 19-25, 1987. Oncogene, 1990, 5: 519-524. The Baculovirus Expression System: A Laboratory Guide, L. A. King 1992. Sambrook et al, 1989, Molecular cloning—A Laboratory Manual, 2nd edition, Cold Spring Harbour Laboratory Press. O'Reilly et al, 1992, Baculovirus Expression Vectors—A Laboratory Manual, W. H. Freeman and Co, New York.
(§2) Receptor tyrosine kinase can be obtained in partially purified form from A-431 cells similar to those described by Carpenter et al., J. Biol. Chem., 1979, 254, 4884, Cohen et al., J. Biol. Chem., 1982, 257, 1523 and by Braun et al., J. Biol. Chem., 1984, 259, 2051. Some of these tests can also be contracted with Millipore Upstate Ltd for screening.

[2] = target: T2, Flt1(h) (Homo sapiens, UniProt P17948); test: in vitro tyrosine kinase inhibition, Flt1(h)
T2 construct: purchased Millipore Upstate Ltd
T2 sequence (P17948 27-1338): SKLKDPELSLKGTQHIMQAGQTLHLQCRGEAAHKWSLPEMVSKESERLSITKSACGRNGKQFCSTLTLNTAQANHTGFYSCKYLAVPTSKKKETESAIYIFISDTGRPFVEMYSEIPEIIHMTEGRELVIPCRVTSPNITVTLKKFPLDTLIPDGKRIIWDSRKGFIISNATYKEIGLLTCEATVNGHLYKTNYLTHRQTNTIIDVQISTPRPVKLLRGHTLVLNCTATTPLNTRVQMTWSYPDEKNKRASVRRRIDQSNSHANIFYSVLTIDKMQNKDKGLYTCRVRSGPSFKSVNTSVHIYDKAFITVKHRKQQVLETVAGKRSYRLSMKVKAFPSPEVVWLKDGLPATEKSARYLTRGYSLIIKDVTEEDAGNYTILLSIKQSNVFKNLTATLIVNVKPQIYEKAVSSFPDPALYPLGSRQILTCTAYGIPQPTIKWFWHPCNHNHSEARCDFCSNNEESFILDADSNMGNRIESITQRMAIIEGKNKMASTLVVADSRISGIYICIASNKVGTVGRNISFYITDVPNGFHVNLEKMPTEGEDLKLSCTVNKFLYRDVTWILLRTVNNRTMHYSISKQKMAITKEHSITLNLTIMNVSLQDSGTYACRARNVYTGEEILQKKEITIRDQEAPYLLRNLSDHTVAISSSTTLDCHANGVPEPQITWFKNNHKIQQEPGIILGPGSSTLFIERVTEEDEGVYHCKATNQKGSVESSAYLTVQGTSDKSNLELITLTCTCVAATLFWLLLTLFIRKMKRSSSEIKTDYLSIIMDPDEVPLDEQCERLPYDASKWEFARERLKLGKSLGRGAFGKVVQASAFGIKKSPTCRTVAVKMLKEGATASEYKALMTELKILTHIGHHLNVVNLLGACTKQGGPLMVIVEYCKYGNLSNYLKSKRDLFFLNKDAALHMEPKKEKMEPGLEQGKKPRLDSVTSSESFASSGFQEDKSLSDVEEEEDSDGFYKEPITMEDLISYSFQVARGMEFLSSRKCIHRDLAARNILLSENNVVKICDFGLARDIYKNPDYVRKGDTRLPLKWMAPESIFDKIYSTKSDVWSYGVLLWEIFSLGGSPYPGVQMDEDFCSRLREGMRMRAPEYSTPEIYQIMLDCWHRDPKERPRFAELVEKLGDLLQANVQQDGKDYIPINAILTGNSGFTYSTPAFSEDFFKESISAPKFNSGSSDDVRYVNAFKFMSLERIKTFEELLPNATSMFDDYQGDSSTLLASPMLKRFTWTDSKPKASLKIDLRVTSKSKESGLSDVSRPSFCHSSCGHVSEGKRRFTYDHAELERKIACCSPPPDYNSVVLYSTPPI
Text: as §1, §2

[3] = target: T3, FGFR1(h) (Homo sapiens, UniProt P11362); test: in vitro tyrosine kinase inhibition, FGFR1(h)
T3 construct: purchased Millipore Upstate Ltd
T3 sequence (P11362 22-822): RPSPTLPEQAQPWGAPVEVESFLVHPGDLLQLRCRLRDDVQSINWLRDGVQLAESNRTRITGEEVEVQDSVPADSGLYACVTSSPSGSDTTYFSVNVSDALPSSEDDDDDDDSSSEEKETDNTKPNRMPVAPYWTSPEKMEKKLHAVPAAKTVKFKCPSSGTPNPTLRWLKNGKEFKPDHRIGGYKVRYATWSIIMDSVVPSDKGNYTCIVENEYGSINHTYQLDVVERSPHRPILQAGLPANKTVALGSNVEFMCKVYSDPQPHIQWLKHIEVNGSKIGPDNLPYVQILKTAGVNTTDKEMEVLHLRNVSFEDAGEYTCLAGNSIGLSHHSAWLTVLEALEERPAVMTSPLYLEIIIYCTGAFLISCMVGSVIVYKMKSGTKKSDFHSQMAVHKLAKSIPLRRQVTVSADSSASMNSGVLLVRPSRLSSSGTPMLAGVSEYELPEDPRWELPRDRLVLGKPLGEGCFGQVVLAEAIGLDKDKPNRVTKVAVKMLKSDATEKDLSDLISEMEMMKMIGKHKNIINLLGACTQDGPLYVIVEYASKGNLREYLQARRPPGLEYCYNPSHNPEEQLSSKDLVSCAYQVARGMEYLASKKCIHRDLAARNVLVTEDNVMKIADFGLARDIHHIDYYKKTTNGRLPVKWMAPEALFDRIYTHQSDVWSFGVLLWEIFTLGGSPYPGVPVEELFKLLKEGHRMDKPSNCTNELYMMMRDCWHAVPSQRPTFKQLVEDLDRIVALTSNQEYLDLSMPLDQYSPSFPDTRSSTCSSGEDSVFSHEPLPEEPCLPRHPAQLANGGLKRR
Text: as §1, §2

[4] = target: T4, KDR(h) (Homo sapiens, UniProt P35968); test: in vitro tyrosine kinase inhibition, KDR(h)
T4 construct: purchased Millipore Upstate Ltd
T4 sequence (P35968 20-1356): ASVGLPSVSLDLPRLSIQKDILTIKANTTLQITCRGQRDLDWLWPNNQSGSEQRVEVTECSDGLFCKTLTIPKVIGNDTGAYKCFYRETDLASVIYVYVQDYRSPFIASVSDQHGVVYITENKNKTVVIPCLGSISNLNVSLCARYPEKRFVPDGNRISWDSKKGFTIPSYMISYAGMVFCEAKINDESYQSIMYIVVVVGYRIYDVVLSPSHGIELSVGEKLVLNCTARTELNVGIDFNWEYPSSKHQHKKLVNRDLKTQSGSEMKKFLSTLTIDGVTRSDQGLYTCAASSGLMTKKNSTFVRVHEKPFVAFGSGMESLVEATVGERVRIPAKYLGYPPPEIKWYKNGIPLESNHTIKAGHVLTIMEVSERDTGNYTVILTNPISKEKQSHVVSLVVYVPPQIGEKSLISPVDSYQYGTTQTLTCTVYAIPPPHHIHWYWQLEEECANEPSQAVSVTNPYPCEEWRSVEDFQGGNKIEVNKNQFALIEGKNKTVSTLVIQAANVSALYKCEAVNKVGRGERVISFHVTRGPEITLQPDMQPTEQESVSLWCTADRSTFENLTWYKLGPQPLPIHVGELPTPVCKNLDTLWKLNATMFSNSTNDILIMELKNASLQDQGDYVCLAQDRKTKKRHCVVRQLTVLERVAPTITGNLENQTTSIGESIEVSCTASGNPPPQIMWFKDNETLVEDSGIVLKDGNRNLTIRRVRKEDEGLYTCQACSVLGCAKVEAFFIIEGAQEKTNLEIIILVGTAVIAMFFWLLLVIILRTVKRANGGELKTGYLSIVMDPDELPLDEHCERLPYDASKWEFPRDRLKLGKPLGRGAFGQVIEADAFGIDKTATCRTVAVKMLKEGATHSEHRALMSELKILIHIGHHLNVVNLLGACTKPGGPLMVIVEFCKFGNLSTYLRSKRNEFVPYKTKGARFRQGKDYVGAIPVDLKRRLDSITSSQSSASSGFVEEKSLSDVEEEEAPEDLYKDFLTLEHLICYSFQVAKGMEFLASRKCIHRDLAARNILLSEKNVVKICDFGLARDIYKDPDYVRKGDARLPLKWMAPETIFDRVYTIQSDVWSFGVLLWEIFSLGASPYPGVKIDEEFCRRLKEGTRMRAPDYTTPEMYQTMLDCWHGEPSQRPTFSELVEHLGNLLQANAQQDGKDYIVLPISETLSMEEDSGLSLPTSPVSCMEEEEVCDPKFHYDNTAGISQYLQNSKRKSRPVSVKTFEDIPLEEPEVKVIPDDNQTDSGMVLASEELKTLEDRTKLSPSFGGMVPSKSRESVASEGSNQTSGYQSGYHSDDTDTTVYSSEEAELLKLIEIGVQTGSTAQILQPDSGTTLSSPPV
Text: as §1, §2

T1 sequence (P35916 25-1363): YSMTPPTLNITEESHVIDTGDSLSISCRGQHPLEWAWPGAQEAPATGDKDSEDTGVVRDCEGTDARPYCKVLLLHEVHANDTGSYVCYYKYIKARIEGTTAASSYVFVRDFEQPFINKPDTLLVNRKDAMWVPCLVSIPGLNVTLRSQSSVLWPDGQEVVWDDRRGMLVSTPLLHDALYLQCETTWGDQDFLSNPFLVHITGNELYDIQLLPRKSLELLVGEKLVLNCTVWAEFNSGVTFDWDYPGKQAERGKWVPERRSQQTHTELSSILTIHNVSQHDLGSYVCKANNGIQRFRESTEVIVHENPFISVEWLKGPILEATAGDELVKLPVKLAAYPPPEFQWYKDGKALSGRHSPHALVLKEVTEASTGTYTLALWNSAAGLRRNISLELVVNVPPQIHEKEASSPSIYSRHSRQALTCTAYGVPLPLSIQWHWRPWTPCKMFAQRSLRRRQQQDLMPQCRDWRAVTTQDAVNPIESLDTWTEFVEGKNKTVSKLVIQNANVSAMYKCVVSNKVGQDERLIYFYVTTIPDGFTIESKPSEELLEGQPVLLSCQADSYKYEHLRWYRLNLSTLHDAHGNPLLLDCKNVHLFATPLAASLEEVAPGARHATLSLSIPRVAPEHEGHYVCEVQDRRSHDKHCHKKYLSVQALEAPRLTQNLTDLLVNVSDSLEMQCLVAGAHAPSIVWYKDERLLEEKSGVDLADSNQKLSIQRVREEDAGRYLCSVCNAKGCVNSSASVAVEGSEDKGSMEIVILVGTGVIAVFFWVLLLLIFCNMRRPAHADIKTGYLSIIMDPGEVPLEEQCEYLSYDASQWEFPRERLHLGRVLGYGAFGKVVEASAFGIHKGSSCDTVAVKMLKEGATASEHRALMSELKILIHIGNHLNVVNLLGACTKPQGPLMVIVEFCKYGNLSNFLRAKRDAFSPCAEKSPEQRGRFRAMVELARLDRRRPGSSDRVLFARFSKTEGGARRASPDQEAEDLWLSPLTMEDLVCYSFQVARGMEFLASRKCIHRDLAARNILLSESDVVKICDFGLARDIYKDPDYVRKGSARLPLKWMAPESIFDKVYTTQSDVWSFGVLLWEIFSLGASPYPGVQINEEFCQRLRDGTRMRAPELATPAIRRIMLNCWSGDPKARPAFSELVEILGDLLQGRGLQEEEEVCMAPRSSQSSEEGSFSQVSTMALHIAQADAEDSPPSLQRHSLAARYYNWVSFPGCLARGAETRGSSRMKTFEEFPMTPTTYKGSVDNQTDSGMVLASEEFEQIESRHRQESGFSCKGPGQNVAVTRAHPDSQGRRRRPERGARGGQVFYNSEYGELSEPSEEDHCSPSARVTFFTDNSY

IC50 [1]: 1 nM
IC50 [2]: 4 nM
IC50 [3]: 20 nM
IC50 [4]: 45 nM
SMILES: COc1cc2c(Oc3ccc4[nH]c(C)cc4c3F)ccnc2cc1OCC1(N)CC1 [AL3818]
